Structures can show the parent of a compound that is named as a salt.
target: T1, human 5-HT4(a) (Homo sapiens, UniProt Q13639); assay: Evaluation of agonistic activity in CHO-K1 cells expressing human 5-HT4(a) (GeneBlAzer HTR4-CRE-bla CHO-K1, beta-lactamase reporter); format: cell-based; settings: CHO-K1 cells stably expressing human 5-HT4(a)
T1 construct: host or cells: GeneBlAzer HTR4-CRE-bla CHO-K1 cells
Description: Test Example 1: Evaluation of Agonistic Activity in CHO-K1 Cells Expressing Human 5-HT4(a)
As CHO-K1 cells stably expressing human 5-HT4(a), we used the GeneBlAzer HTR4-CRE-bla CHO-K1 cells (Invitrogen Corp.). The cells were cultured, under the condition of 37[…] and 5% CO2, in a DMEM supplemented with 10% fetal bovine serum (FBS), 25 mM HEPES (pH7.4), 600 μg/ml hygromycin B, 0.1 mM non-essential amino acids, 100 unit/ml penicillin and 100 μg/ml streptomycin. Subcultures were performed three times per one week, each being at less than 80% confluence. At the previous day before treating test compounds, the cells were collected using 0.5% trypsin/EDTA and then diluted with a DMEM supplemented with 1% FBS, 25 mM HEPES, and 0.1 mM non-essential amino acids into 3.125×10^5 cells/ml. 32 μl of the diluted cells were added into 384-well plate (10^4 cells per well) and then incubated overnight. After the overnight culture, 8 μl of the medium having 1% of DMSO was added into the cell-free control well and the non-stimulating control well, respectively. 8 μl of the respective test compound dilutions (which had been prepared by diluting by 100-times with the medium as mentioned in the above) having 1% of DMSO were added to the respective remaining wells. After being cultured in the incubator for 5 hours, the wells of the 384-plate were treated with the substrate solution (8 μl per well) prepared according to the vendor's instruction (i.e., Invitrogen's instruction), and then incubated in the dark room for additional two hours. Agonistic activities on 5-HT4 receptor were evaluated, on the basis of fluorescence values of the cleavage-products by beta-lactamase. After exciting to 410 nm of wavelength using a fluorescence detector (Genios Pro), we measured the fluorescence values at two emission wavelengths (first wavelength: 465 nm, second wavelength: 535 nm). Data were analyzed on the basis of the ratio of fluorescence intensities of each well at the respective wavelengths. Each EC50 value was calculated by non-linear regression analysis using the “GraphPad Prism” program, based on the activities according to 8-different concentrations of the test compounds.

T1 sequence (Q13639 1-387 isoform Q13639-2): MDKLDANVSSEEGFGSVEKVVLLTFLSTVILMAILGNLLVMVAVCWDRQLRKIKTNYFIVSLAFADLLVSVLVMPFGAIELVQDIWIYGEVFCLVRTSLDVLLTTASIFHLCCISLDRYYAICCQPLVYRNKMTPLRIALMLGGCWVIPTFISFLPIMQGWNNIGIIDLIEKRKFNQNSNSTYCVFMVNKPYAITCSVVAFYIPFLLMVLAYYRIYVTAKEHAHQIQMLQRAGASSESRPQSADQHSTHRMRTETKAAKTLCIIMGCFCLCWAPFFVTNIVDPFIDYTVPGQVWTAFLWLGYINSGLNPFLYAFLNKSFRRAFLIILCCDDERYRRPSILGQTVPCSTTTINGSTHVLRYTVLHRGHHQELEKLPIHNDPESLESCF

EC50 [nM]	Compound
0.016	CCCc1cc(N2CC[C@H](NCc3ccsc3)C2)nc(Nc2cccc(C#N)c2)n1 [Example 113, (S)-3-{4-propyl-6-[3-(thiophen-3-ylmethylamino)pyrrolidin-1-yl]pyrimidin-2-ylamino}benzonitrile]
0.0035	CCCCN[C@H]1CCN(c2cc(CCC)nc(Nc3cccc(C#N)c3)n2)C1 [Example 116, (S)-3-{4-[3-(butylamino)pyrrolidin-1-yl]-6-propylpyrimidin-2-ylamino}benzonitrile]
0.014	CCCc1cc(N2CC[C@H](NCCCSC)C2)nc(Nc2cccc(C#N)c2)n1 [Example 117, (S)-3-(4-{3-[3-(methylthio)propylamino]pyrrolidin-1-yl}-6-propylpyrimidin-2-ylamino)benzonitrile]
0.005	CCCc1cc(N2CC[C@H](NC)C2)nc(Nc2ccc3cc[nH]c3c2)n1 [Example 121, (S)-N-{4-[3-(methylamino)pyrrolidin-1-yl]-6-propylpyrimidin-2-yl}-1H-indol-6-amine]
0.0019	CCCc1cc(N2CC[C@H](NC)C2)nc(Nc2ccc(N)c(C(F)(F)F)c2)n1 [Example 123, (S)-N^1-{4-[3-(methylamino)pyrrolidin-1-yl]-6-propylpyrimidin-2-yl}-3-(trifluoromethyl)benzene-1,4-diamine dihydrochloride]
0.159	CCCc1cc(N2CC[C@H](NS(C)(=O)=O)C2)nc(Nc2cccc(C#N)c2)n1 [Example 125, (S)-N-{1-[2-(3-cyanophenylamino)-6-propylpyrimidin-4-yl]pyrrolidin-3-yl}methanesulfonamide]
0.0062	CCCc1cc(N2CC[C@H](NC(C)CC)C2)nc(Nc2cccc(C#N)c2)n1 (stereo partly drawn) [Example 127, 3-{4-[(3S)-3-(sec-butylamino)pyrrolidin-1-yl]-6-propylpyrimidin-2-ylamino}benzonitrile]
0.039	CCCc1cc(N2CC[C@H](NC(CC)CC)C2)nc(Nc2cccc(C#N)c2)n1 [Example 128, (S)-3-{4-[3-(pentan-3-ylamino)pyrrolidin-1-yl]-6-propylpyrimidin-2-ylamino}benzonitrile]
0.323	CCCc1cc(N2CC[C@H](NC(CC(C)C)CC(C)C)C2)nc(Nc2cccc(C#N)c2)n1 [Example 129, (S)-3-{4-[3-(2,6-dimethylheptan-4-ylamino)pyrrolidin-1-yl]-6-propylpyrimidin-2-ylamino}benzonitrile]
0.091	CCCc1cc(N2CC[C@H](NC(C)C(C)(C)O)C2)nc(Nc2cccc(C#N)c2)n1 (stereo partly drawn) [Example 131, (S)-3-{4-[3-(3-hydroxy-3-methylbutan-2-ylamino)pyrrolidin-1-yl]-6-propylpyrimidin-2-ylamino}benzonitrile]
0.039	CCCCC(C)N[C@H]1CCN(c2cc(CCC)nc(Nc3cccc(C#N)c3)n2)C1 (stereo partly drawn) [Example 133, (S)-3-{4-[3-(n-hexan-2-ylamino)pyrrolidin-1-yl]-6-propylpyrimidin-2-ylamino}benzonitrile]
0.214	CCCc1cc(N2CC[C@H](NC(C)CCC(C)C)C2)nc(Nc2cccc(C#N)c2)n1 (stereo partly drawn) [Example 134, (S)-3-{4-[3-(5-methylhexan-2-ylamino)pyrrolidin-1-yl]-6-propylpyrimidin-2-ylamino}benzonitrile]
0.011	CCCc1cc(N2CC[C@H](NC3CCCCC3)C2)nc(Nc2cccc(C#N)c2)n1 [Example 135, (S)-3-{4-[3-(cyclohexylamino)pyrrolidin-1-yl]-6-propylpyrimidin-2-ylamino}benzonitrile]
0.045	CCCc1cc(N2CC[C@H](NCCNC(=O)OC(C)(C)C)C2)nc(Nc2cccc(C#N)c2)n1 [Example 136, (S)-tert-butyl 2-{1-[2-(3-cyanophenylamino)-6-propylpyrimidin-4-yl]pyrrolidin-3-ylamino}ethylcarbamate]
0.072	CCCc1cc(N2CC[C@H](NC3CCN(Cc4ccccc4)CC3)C2)nc(Nc2cccc(C#N)c2)n1 [Example 137, (S)-3-{4-[3-(1-benzylpiperidin-4-ylamino)pyrrolidin-1-yl]-6-propylpyrimidin-2-ylamino}benzonitrile]
0.012	CCCc1cc(N2CC[C@H](NC(C)C)C2)nc(Nc2cccc(C#N)c2)n1 [Example 138, (S)-3-{4-[3-(isopropylamino)pyrrolidin-1-yl]-6-propylpyrimidin-2-ylamino}benzonitrile]
0.034	CCCc1cc(N2CC[C@H](NC3CCN(C(=O)c4ccccc4)CC3)C2)nc(Nc2cccc(C#N)c2)n1 [Example 139, (S)-3-{4-[3-(1-benzoylpiperidin-4-ylamino)pyrrolidin-1-yl]-6-propylpyrimidin-2-ylamino}benzonitrile]
0.028	CCCc1cc(N2CC[C@H](NC3CCN(C(C)=O)CC3)C2)nc(Nc2cccc(C#N)c2)n1 [Example 140, (S)-3-{4-[3-(1-piperidin-4-acetylpiperidin-4-ylamino)pyrrolidin-1-yl]-6-propylpyrimidin-2-ylamino}benzonitrile]
0.085	CCCc1cc(N2CC[C@H](NC3CCCCCCC3)C2)nc(Nc2cccc(C#N)c2)n1 [Example 141, (S)-3-{4-[3-(cyclooctylamino)pyrrolidin-1-yl]-6-propylpyrimidin-2-ylamino}benzonitrile]
0.01	CCCc1cc(N2CC[C@H](NC3CCC3)C2)nc(Nc2cccc(C#N)c2)n1 [Example 142, (S)-3-{4-[3-(cyclobutylamino)pyrrolidin-1-yl]-6-propylpyrimidin-2-ylamino}benzonitrile]
0.0066	CCCc1cc(N2CC[C@H](NC3CCCC3)C2)nc(Nc2cccc(C#N)c2)n1 [Example 143]
0.036	CCCc1cc(N2CC[C@H](NC3CN(C(=O)OC(C)(C)C)C3)C2)nc(Nc2cccc(C#N)c2)n1 [Example 144, (S)-tert-butyl 3-{1-[2-(3-cyanophenylamino)-6-propylpyrimidin-4-yl]pyrrolidin-3-ylamino}azetidine-1-carboxylate]
0.046	CCCc1cc(N2CC[C@H](NCCOCc3ccccc3)C2)nc(Nc2cccc(C#N)c2)n1 [Example 145, (S)-3-(4-{3-[2-(benzyloxy)ethylamino]pyrrolidin-1-yl}-6-propylpyrimidin-2-ylamino)benzonitrile]
0.084	CCCc1cc(N2CC[C@H](NC(=O)CC)C2)nc(Nc2cccc(C#N)c2)n1 [Example 146, (S)-N-{1-[2-(3-cyanophenylamino)-6-propylpyrimidin-4-yl]pyrrolidin-3-yl}propionamide]
0.277	C/C=C(\C)C(=O)N[C@H]1CCN(c2cc(CCC)nc(Nc3cccc(C#N)c3)n2)C1 [Example 149, (S,E)-N-{1-[2-(3-cyanophenylamino)-6-propylpyrimidin-4-yl]pyrrolidin-3-yl}-2-methylbut-2-enamide]
0.41	CCCCCC(=O)N[C@H]1CCN(c2cc(CCC)nc(Nc3cccc(C#N)c3)n2)C1 [Example 150, (S)-N-{1-[2-(3-cyanophenylamino)-6-propylpyrimidin-4-yl]pyrrolidin-3-yl}hexanamide]
0.334	CCCc1cc(N2CC[C@H](NC(=O)CCc3ccccc3)C2)nc(Nc2cccc(C#N)c2)n1 [Example 151, (S)-N-{1-[2-(3-cyanophenylamino)-6-propylpyrimidin-4-yl]pyrrolidin-3-yl}-3-phenylpropanamide]

Reference: patent publication US9890138B2, “Diaminopyrimidine derivatives and processes for the preparation thereof” (YUHAN CORPORATION, priority 2011, dated 2018)
